Measurements as given in patent US10428082B2, “Triazole derivatives of melampomagnolide B and methods of use thereof” (BioVentures, LLC, priority 2016, dated 2019).

Columns and labels:
M9 ENL1 cell line = assay: Anti-leukemic activity, Annexin V/7-AAD flow cytometry; assay type: cell-based; settings: 24 h of drug exposure; read-out: M9ENL1 (EC50)
Protocol: The newly synthesized triazole derivatives of melampomagnolide B were screened for anti-leukemic activity against M9 ENL1 and primary AML cell lines; the latter were obtained with informed consent from human patients. Evaluations were performed after 24 h of drug exposure using flow cytometric analysis by labeling with Annexin V and 7-aminoactinomycin D (7-AAD) to delineate apoptotic cell populations. In all experiments PTL was included as a reference control.

786-0 = assay: NCI 60 growth inhibition; assay type: cell-based, human; settings: 786-0, Renal Cancer, Table 3
Protocol: (§1) The above triazole derivatives of melampomagnolide B were evaluated for growth inhibitory properties against an NCI panel of 60 human cancer cell lines derived from nine human cancer cell types, grouped into disease sub-panels that represent leukemia, lung, colon, central nervous system (CNS), melanoma, renal, ovary, breast, and prostate cancer cells. Growth inhibitory (GI50) effects were measured as a function of the variation of optical density as a percentage of control.

ACHN = assay: NCI 60 growth inhibition; assay type: cell-based, human; settings: Renal Cancer, Table 3
Protocol: as §1

CAKI-1 = assay: NCI 60 growth inhibition; assay type: cell-based, human; settings: CAKI-1, Renal Cancer, Table 3
Protocol: as §1

DU-145 = assay: NCI 60 growth inhibition; assay type: cell-based, human; settings: DU-145, Prostate Cancer, Table 3
Protocol: as §1

HCC-2998 = assay: NCI 60 growth inhibition; assay type: cell-based, human; settings: HCC-2998, Colon Cancer, Table 3
Protocol: as §1

HCT-116 = assay: NCI 60 growth inhibition; assay type: cell-based, human; settings: HCT-116, Colon Cancer, Table 3
Protocol: as §1

HCT-15 = assay: NCI 60 growth inhibition; assay type: cell-based, human; settings: HCT-15, Colon Cancer, Table 3
Protocol: as §1

HL-60(TB) = assay: NCI 60 growth inhibition; assay type: cell-based, human; settings: HL-60 (TB), Leukemia, Table 3
Protocol: as §1

HS 578T = assay: NCI 60 growth inhibition; assay type: cell-based, human; settings: Breast Cancer, Table 3
Protocol: as §1

IGROV1 = assay: NCI 60 growth inhibition; assay type: cell-based, human; settings: IGROV1, Ovarian Cancer, Table 3
Protocol: as §1

K-562 = assay: NCI 60 growth inhibition; assay type: cell-based, human; settings: K-562, Leukemia, Table 3
Protocol: as §1

LOX IMVI = assay: NCI 60 growth inhibition; assay type: cell-based, human; settings: Melanoma, Table 3
Protocol: as §1

M14 = assay: NCI 60 growth inhibition; assay type: cell-based, human; settings: M14, Melanoma, Table 3
Protocol: as §1

MALME-3M = assay: NCI 60 growth inhibition; assay type: cell-based, human; settings: Melanoma, Table 3
Protocol: as §1

MCF7 = assay: NCI 60 growth inhibition; assay type: cell-based, human; settings: MCF7, Breast Cancer, Table 3
Protocol: as §1

MDA-MB-231/ATCC = assay: NCI 60 growth inhibition; assay type: cell-based, human; settings: Breast Cancer, Table 3
Protocol: as §1

MDA-MB-435 = assay: NCI 60 growth inhibition; assay type: cell-based, human; settings: MDA-MB-435, Melanoma, Table 3
Protocol: as §1

MDA-MB-468 = assay: NCI 60 growth inhibition; assay type: cell-based, human; settings: MDA-MB-468, Breast Cancer, Table 3
Protocol: as §1

MOLT-4 = assay: NCI 60 growth inhibition; assay type: cell-based, human; settings: MOLT-4, Leukemia, Table 3
Protocol: as §1

NCI-H226 = assay: NCI 60 growth inhibition; assay type: cell-based, human; settings: NCI-H226, Non-Small Cell Lung Cancer, Table 3
Protocol: as §1

NCI-H460 = assay: NCI 60 growth inhibition; assay type: cell-based, human; settings: NCI-H460, Non-Small Cell Lung Cancer, Table 3
Protocol: as §1

NCI-H522 = assay: NCI 60 growth inhibition; assay type: cell-based, human; settings: NCI-H522, Non-Small Cell Lung Cancer, Table 3
Protocol: as §1

NCI/ADR-RES = assay: NCI 60 growth inhibition; assay type: cell-based, human; settings: Ovarian Cancer, Table 3
Protocol: as §1

PC-3 = assay: NCI 60 growth inhibition; assay type: cell-based, human; settings: PC-3, Prostate Cancer, Table 3
Protocol: as §1

RPMI-8226 = assay: NCI 60 growth inhibition; assay type: cell-based, human; settings: RPMI-8226, Leukemia, Table 3
Protocol: as §1

SF-268 = assay: NCI 60 growth inhibition; assay type: cell-based, human; settings: SF-268, CNS Cancer, Table 3
Protocol: as §1

SF-539 = assay: NCI 60 growth inhibition; assay type: cell-based, human; settings: SF-539, CNS Cancer, Table 3
Protocol: as §1

SK-MEL-2 = assay: NCI 60 growth inhibition; assay type: cell-based, human; settings: SK-MEL-2, Melanoma, Table 3
Protocol: as §1

SK-MEL-5 = assay: NCI 60 growth inhibition; assay type: cell-based, human; settings: SK-MEL-5, Melanoma, Table 3
Protocol: as §1

SK-OV-3 = assay: NCI 60 growth inhibition; assay type: cell-based, human; settings: SK-OV-3, Ovarian Cancer, Table 3
Protocol: as §1

SN12C = assay: NCI 60 growth inhibition; assay type: cell-based, human; settings: Renal Cancer, Table 3
Protocol: as §1

SNB-19 = assay: NCI 60 growth inhibition; assay type: cell-based, human; settings: SNB-19, CNS Cancer, Table 3
Protocol: as §1

SR = assay: NCI 60 growth inhibition; assay type: cell-based, human; settings: Leukemia, Table 3
Protocol: as §1

SW-620 = assay: NCI 60 growth inhibition; assay type: cell-based, human; settings: SW-620, Colon Cancer, Table 3
Protocol: as §1

U251 = assay: NCI 60 growth inhibition; assay type: cell-based, human; settings: U251, CNS Cancer, Table 3
Protocol: as §1

UO-31 = assay: NCI 60 growth inhibition; assay type: cell-based, human; settings: UO-31, Renal Cancer, Table 3
Protocol: as §1

With `C=C1C(=O)O[C@H]2[C@H]1CC/C(Cn1cc(-c3ccc(N)cc3)nn1)=C\CC[C@@]1(C)O[C@@H]21` [JVM 4-58] the EC50 (M9 ENL1 cell line) was 2000 nM, the GI50 (786-0) was 1980 nM and the GI50 (ACHN) was 2650 nM. The GI50 (CAKI-1) was 1770 nM, the GI50 (DU-145) was 3650 nM and the GI50 (HCC-2998) was 3490 nM. The GI50 (HCT-116) was 1550 nM, the GI50 (HCT-15) was 1420 nM and the GI50 (HL-60(TB)) was 2230 nM. The GI50 (HS 578T) was 4460 nM, the GI50 (IGROV1) was 2960 nM and the GI50 (K-562) was 2990 nM. For the same compound, the GI50 (LOX IMVI) was 1510 nM, the GI50 (M14) was 2970 nM and the GI50 (MALME-3M) was 2180 nM. The GI50 (MCF7) was 2410 nM, the GI50 (MDA-MB-231/ATCC) was 3450 nM and the GI50 (MDA-MB-435) was 3010 nM. It also gave a GI50 (MDA-MB-468) of 1770 nM, a GI50 (MOLT-4) of 2870 nM and a GI50 (NCI-H226) of 3340 nM. The GI50 (NCI-H460) was 10400 nM, the GI50 (NCI-H522) was 1370 nM and the GI50 (NCI/ADR-RES) was 14500 nM. It also gave a GI50 (PC-3) of 10100 nM, a GI50 (RPMI-8226) of 2750 nM and a GI50 (SF-268) of 3700 nM. The GI50 (SF-539) was 2770 nM, the GI50 (SK-MEL-2) was 10600 nM and the GI50 (SK-MEL-5) was 3470 nM. The GI50 (SK-OV-3) was 18300 nM, the GI50 (SN12C) was 3480 nM and the GI50 (SNB-19) was 12700 nM. For the same compound, the GI50 (SR) was 700 nM, the GI50 (SW-620) was 2160 nM and the GI50 (U251) was 4160 nM. It also gave a GI50 (UO-31) of 1870 nM.

Work on `C=C1C(=O)O[C@H]2[C@H]1CC/C(Cn1cc(-c3ccccc3C(F)(F)F)nn1)=C\CC[C@@]1(C)O[C@@H]21` [JVM 4-59] yielded an EC50 (M9 ENL1 cell line) of 3900 nM, a GI50 (786-0) of 1840 nM and a GI50 (ACHN) of 1450 nM. For the same compound, the GI50 (CAKI-1) was 1310 nM, the GI50 (DU-145) was 1420 nM and the GI50 (HCC-2998) was 1850 nM. For the same compound, the GI50 (HCT-116) was 1260 nM, the GI50 (HCT-15) was 1050 nM and the GI50 (HL-60(TB)) was 2580 nM. It also gave a GI50 (HS 578T) of 3570 nM, a GI50 (IGROV1) of 1810 nM and a GI50 (K-562) of 2400 nM. For the same compound, the GI50 (LOX IMVI) was 1110 nM, the GI50 (M14) was 2150 nM and the GI50 (MALME-3M) was 1700 nM. For the same compound, the GI50 (MCF7) was 1330 nM, the GI50 (MDA-MB-231/ATCC) was 1640 nM and the GI50 (MDA-MB-435) was 2180 nM. For the same compound, the GI50 (MDA-MB-468) was 1140 nM, the GI50 (MOLT-4) was 3030 nM and the GI50 (NCI-H226) was 1730 nM. For the same compound, the GI50 (NCI-H460) was 3970 nM, the GI50 (NCI-H522) was 1380 nM and the GI50 (NCI/ADR-RES) was 2990 nM. For the same compound, the GI50 (PC-3) was 4320 nM, the GI50 (RPMI-8226) was 1870 nM and the GI50 (SF-268) was 2090 nM. It also gave a GI50 (SF-539) of 1760 nM, a GI50 (SK-MEL-2) of 2450 nM and a GI50 (SK-MEL-5) of 1720 nM. The GI50 (SK-OV-3) was 17300 nM, the GI50 (SN12C) was 2470 nM and the GI50 (SNB-19) was 10800 nM. It also gave a GI50 (SW-620) of 1240 nM, a GI50 (U251) of 1830 nM and a GI50 (UO-31) of 1230 nM.
